Measurements as given in ChEMBL document CHEMBL1201862, “PubChem BioAssay data set” (2004).
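Values below derive from 48-hour exposures of cells grown in 96-well plates, with endpoints linearly interpolated between the two concentrations bracketing the appropriate inhibition level. GI50 = concentration required for 50% inhibition of growth.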 Active and inactive are the calls of the source. No stated cut-off is given here; in the data, active = GI50 up to about 1.1 µM and inactive = higher.

How the values were obtained:
Experiment in all cases: inhibition of tumour cell growth, NCI panel, 48 h
UACC-62 = test system: UACC-62
LOX IMVI = test system: LOX IMVI
HCT-15 = test system: HCT-15
COLO 205 = test system: COLO 205
RXF 393 = test system: RXF 393
HL-60 = test system: HL-60
MCF7 = test system: MCF7
SW-620 = test system: SW-620
T47D = test system: T47D
ACHN = test system: ACHN
Malme-3M = test system: Malme-3M
MDA-MB-231 = test system: MDA-MB-231
HCT-116 = test system: HCT-116
SR = test system: SR
SN12C = test system: SN12C
MDA-N = test system: MDA-N
A498 = test system: A498
SK-MEL-28 = test system: SK-MEL-28
SK-OV-3 = test system: SK-OV-3

Cn1c(=O)[nH]c2sc3c(c2c1=N)CCCC3
GI50 (UACC-62): > 75 µM (inactive)
GI50 (LOX IMVI): > 75 µM (inactive)
GI50 (HCT-15): > 75 µM
GI50 (COLO 205): > 75 µM (inactive)
GI50 (RXF 393): > 75 µM (inactive)
GI50 (HL-60): 32.7 µM (inactive)
GI50 (MCF7): > 75 µM (inactive)
GI50 (SW-620): > 75 µM (inactive)
GI50 (T47D): > 75 µM (inactive)
GI50 (ACHN): > 75 µM (inactive)
GI50 (Malme-3M): > 75 µM (inactive)
GI50 (MDA-MB-231): > 75 µM (inactive)
GI50 (HCT-116): > 75 µM (inactive)
GI50 (SR): > 75 µM (inactive)
GI50 (SN12C): > 75 µM (inactive)
GI50 (MDA-N): > 75 µM (inactive)
GI50 (A498): > 75 µM (inactive)
GI50 (SK-MEL-28): > 75 µM (inactive)

NS(=O)(=O)c1ccc(Nc2c3ccccc3nc3c(C(=O)NCCO)cccc23)cc1
GI50 (UACC-62): 0.135 µM (active)
GI50 (LOX IMVI): 0.124 µM (active)
GI50 (HCT-15): 0.169 µM
GI50 (COLO 205): 0.0762 µM (active)
GI50 (RXF 393): 0.0857 µM (active)
GI50 (HL-60): 0.243 µM (active)
GI50 (MCF7): 0.0373 µM (active)
GI50 (SW-620): 0.118 µM (active)
GI50 (T47D): 0.03 µM (active)
GI50 (ACHN): 0.252 µM (active)
GI50 (Malme-3M): 0.13 µM (active)
GI50 (MDA-MB-231): 0.184 µM (active)
GI50 (HCT-116): 0.149 µM (active)
GI50 (SR): 0.0128 µM (active)
GI50 (SN12C): 0.176 µM (active)
GI50 (SK-OV-3): 0.201 µM (active)
GI50 (MDA-N): 0.196 µM (active)
GI50 (A498): 0.105 µM (active)
GI50 (SK-MEL-28): 0.167 µM (active)

CCOc1cc(NC(C)=O)ccc1C(=O)NN1C(=O)CSC1c1ccccc1 (stereo not drawn)
GI50 (UACC-62): 52 µM (inactive)
GI50 (LOX IMVI): > 100 µM (inactive)
GI50 (HCT-15): 60.3 µM
GI50 (COLO 205): 75 µM (inactive)
GI50 (RXF 393): 74.6 µM (inactive)
GI50 (HL-60): 33.5 µM (inactive)
GI50 (MCF7): 78.5 µM (inactive)
GI50 (SW-620): > 100 µM (inactive)
GI50 (T47D): 25.7 µM (inactive)
GI50 (ACHN): > 100 µM (inactive)
GI50 (Malme-3M): 86.3 µM (inactive)
GI50 (MDA-MB-231): > 100 µM (inactive)
GI50 (HCT-116): > 100 µM (inactive)
GI50 (SR): 9.86 µM (inactive)
GI50 (SN12C): > 100 µM (inactive)
GI50 (SK-OV-3): > 100 µM (inactive)
GI50 (MDA-N): 84.9 µM (inactive)
GI50 (A498): > 100 µM (inactive)
GI50 (SK-MEL-28): > 100 µM (inactive)

C=C1CCOC2(C(O)C(C)(O)CO)NC(=O)C1(O)NC2=O (stereo not drawn)
GI50 (UACC-62): > 100 µM (inactive)
GI50 (LOX IMVI): > 100 µM (inactive)
GI50 (HCT-15): > 100 µM
GI50 (COLO 205): > 100 µM (inactive)
GI50 (RXF 393): > 100 µM (inactive)
GI50 (HL-60): > 100 µM (inactive)
GI50 (MCF7): > 100 µM (inactive)
GI50 (SW-620): > 100 µM (inactive)
GI50 (T47D): > 100 µM (inactive)
GI50 (ACHN): > 100 µM (inactive)
GI50 (Malme-3M): > 100 µM (inactive)
GI50 (MDA-MB-231): > 100 µM (inactive)
GI50 (HCT-116): > 100 µM (inactive)
GI50 (SR): > 100 µM (inactive)
GI50 (SN12C): > 100 µM (inactive)
GI50 (SK-OV-3): > 100 µM (inactive)
GI50 (MDA-N): > 100 µM (inactive)
GI50 (A498): > 100 µM (inactive)
GI50 (SK-MEL-28): > 100 µM (inactive)

COc1ccc(/C=N/NC(=O)c2ccccc2Nc2ccccc2C(=O)N/N=C/c2ccc(OC)c(OC)c2)cc1OC
GI50 (UACC-62): > 100 µM (inactive)
GI50 (HCT-15): > 100 µM
GI50 (COLO 205): > 100 µM (inactive)
GI50 (RXF 393): > 100 µM (inactive)
GI50 (HL-60): > 100 µM (inactive)
GI50 (MCF7): > 100 µM (inactive)
GI50 (SW-620): > 100 µM (inactive)
GI50 (T47D): > 100 µM (inactive)
GI50 (ACHN): > 100 µM (inactive)
GI50 (Malme-3M): 51.5 µM (inactive)
GI50 (MDA-MB-231): 29.6 µM (inactive)
GI50 (HCT-116): > 100 µM (inactive)
GI50 (SR): > 100 µM (inactive)
GI50 (SN12C): > 100 µM (inactive)
GI50 (SK-OV-3): > 100 µM (inactive)
GI50 (MDA-N): > 100 µM (inactive)
GI50 (A498): > 100 µM (inactive)
GI50 (SK-MEL-28): > 100 µM (inactive)

c1csc(-c2nnc(C34CC5CC(CC(C5)C3)C4)o2)c1
GI50 (UACC-62): 36.2 µM (inactive)
GI50 (LOX IMVI): 23.6 µM (inactive)
GI50 (HCT-15): 38.1 µM
GI50 (COLO 205): 17.5 µM (inactive)
GI50 (RXF 393): 23.3 µM (inactive)
GI50 (HL-60): 15.1 µM (inactive)
GI50 (MCF7): < 0.01 µM (active)
GI50 (SW-620): 45.8 µM (inactive)
GI50 (T47D): 26.9 µM (inactive)
GI50 (ACHN): 33.3 µM (inactive)
GI50 (Malme-3M): 16.4 µM (inactive)
GI50 (MDA-MB-231): 17.7 µM (inactive)
GI50 (HCT-116): 32.2 µM (inactive)
GI50 (SR): 27.7 µM (inactive)
GI50 (SN12C): 38 µM (inactive)
GI50 (SK-OV-3): 53.1 µM (inactive)
GI50 (MDA-N): 37.7 µM (inactive)
GI50 (A498): 16.9 µM (inactive)
GI50 (SK-MEL-28): 40.6 µM (inactive)

CCC1C(=O)C(O)[C@H]2[C@@H]3C(O)CC4=CC(=O)CC[C@]4(C)[C@H]3CC[C@]12C (stereo partly drawn)
GI50 (UACC-62): > 50 µM (inactive)
GI50 (LOX IMVI): > 50 µM (inactive)
GI50 (HCT-15): > 50 µM
GI50 (COLO 205): > 50 µM (inactive)
GI50 (HL-60): > 50 µM (inactive)
GI50 (MCF7): > 50 µM (inactive)
GI50 (SW-620): > 50 µM (inactive)
GI50 (T47D): > 50 µM (inactive)
GI50 (ACHN): > 50 µM (inactive)
GI50 (Malme-3M): > 50 µM (inactive)
GI50 (MDA-MB-231): > 50 µM (inactive)
GI50 (HCT-116): > 50 µM (inactive)
GI50 (SR): > 50 µM (inactive)
GI50 (SN12C): > 50 µM (inactive)
GI50 (SK-OV-3): > 50 µM (inactive)
GI50 (MDA-N): > 50 µM (inactive)
GI50 (A498): > 50 µM (inactive)
GI50 (SK-MEL-28): > 50 µM (inactive)

Cc1cc(C(=O)CCCCOc2ccc(C3=NCCO3)cc2)c(C)n1C
GI50 (UACC-62): > 10 µM (inactive)
GI50 (HCT-15): 38.6 µM
GI50 (COLO 205): 52.4 µM (inactive)
GI50 (RXF 393): 13.2 µM (inactive)
GI50 (HL-60): 0.0883 µM (active)
GI50 (MCF7): 33.3 µM (inactive)
GI50 (SW-620): 33.2 µM (inactive)
GI50 (T47D): 23 µM (inactive)
GI50 (ACHN): 35.4 µM (inactive)
GI50 (Malme-3M): 35.3 µM (inactive)
GI50 (MDA-MB-231): > 100 µM (inactive)
GI50 (HCT-116): 39.9 µM (inactive)
GI50 (SR): 29.4 µM (inactive)
GI50 (SN12C): 56.5 µM (inactive)
GI50 (SK-OV-3): 49.7 µM (inactive)
GI50 (MDA-N): 28.1 µM (inactive)
GI50 (A498): 34.6 µM (inactive)
GI50 (SK-MEL-28): 25.4 µM (inactive)
